The results in this text go back to patent publication US11679124B2, “Composition for use in the treatment of conditions caused by calcium deficiency” (Epicyt Pharma AB, priority 2018, dated 2023).

Assay type in all cases: cell-based, human
Assay [1] deals with Caco-2 cells. The assay can be described thus: Ca2+ transport across Caco-2 monolayer without calcium gradient. To be noted: 10 nM 1.25(OH)2-vitamin D3, last 48 hours; no Ca2+ gradient, 1.8 mM on each side. As for the experimental part:
The Caco-2 cells were cultivated in on permeable support for 11-14 days, slightly modified according to Giuliano A. R., & Wood R. J. On the day of the experiments the trans-epithelial electrical resistance was measured and only preparations with values between 400 and 900 Ohms×cm^2 were counted. Tested substances were given in the top compartment and effect as read after 24 to 48 h. Ca^2+ flux was measured using liquid scintillation comparing the lower compartment with the upper.
In the present experiment the Caco-2 cells were cultured and grown to epithelium-shaped confluence over 14 days. The following experiments were performed according to Giuliano A. R., & Wood R. J. The effect of 10 nM 1.25(OH)2-vitamin D3 on the calcium transport was tested during the last 48 hours. Flux was tested without calcium (Ca^2+) gradient, concentration of calcium was 1.8 mM on each side of the layer of cells.
In the present experiment the Caco-2 cells were cultured and grown to epithelium-shaped confluence over 12 days. The cells were then grown in another 4 days in presence of 0.1 mM GCA, or in presence with 0.5 mM butyrate, or in presence of the GCA and butyrate in combination.
The effect of 10 nM 1.25(OH)2-vitamin D3 on the calcium transport was tested during the last 48 hours. […]

In assay [2] the test system is Hsp 90β. In words: Hsp 90β expression in Caco-2 cells, western blot. To be noted: 48 h, GCA 1×10^−4 M, butyrate 5×10^−4 M, vs. vehicle control. As for the experimental part:
Caco-2 cells with a passage or about 45 (number of time they have been divided) (Sigma-Aldrich Stockholm Sweden) were cultured in Dulbecco's Modified Eagle's Medium (Life Technologies Invitrogen AB, Lidingo, Sweden), with 10% Foetal Bovine Serum (FBS) (Life Technologies), 1% Non Essential Amino Acid (NEAA) (Life Technologies), 100 IU/mL Penicillin Streptomycin (Pen-Strep) (Life Technologies). The cells were incubated in 37° C. with 5% CO2 and cultured in a cell culture flask (BD Falcon®, VWR Internationals, Stockholm, Sweden) and the medium was changed at Monday, Wednesday and Friday every week. […]
For the protein harvesting, the cells was scraped into lysis buffer in protein kinase blocking solution (1% Triton x-100, EDTA; ethylenediaminetetraacetic acid) containing protein kinase inhibitor buffer (10 mM potassium phosphate buffer pH 6.8, 10 mM 3-[(3-cholamidopropyl) dimethylammonio]-1-propane sulphonate (CHAPS: Boehringer Mannheim, Mannheim, Germany) and protease inhibitor cocktail tablet Complete (Roche Diagnostics AB, Stockholm, Sweden). After shaking several times on ice, the cell debris was removed by centrifugation (10000×g for 10 min at 4° C.) and the supernatant's protein content was analysed using the Bradford method. […]

Assay [3] deals with claudin-2. In words: Claudin-2 protein expression in Caco-2 cells, western blot. Conditions: vitamin D 10 μM or 100 μM, geldanamycin 0.5 μM. As for the experimental part:
Caco-2 cells with a passage or about 45 (number of time they have been divided) (Sigma-Aldrich Stockholm Sweden) were cultured in Dulbecco's Modified Eagle's Medium (Life Technologies Invitrogen AB, Lidingo, Sweden), with 10% Foetal Bovine Serum (FBS) (Life Technologies), 1% Non Essential Amino Acid (NEAA) (Life Technologies), 100 IU/mL Penicillin Streptomycin (Pen-Strep) (Life Technologies). The cells were incubated in 37° C. with 5% CO2 and cultured in a cell culture flask (BD Falcon®, VWR Internationals, Stockholm, Sweden) and the medium was changed at Monday, Wednesday and Friday every week.
The cells were cultured for approximately 1 week before they were detached (0.25% trypsin-EDTA, Life Technologies) and seeded in 6 well plates with semipermeable filter inserts (3 μm pore size, BD Biosciences, Le Pont de Claix, France), 200 000 cells/well. At confluence the culture medium was changed to FBS-free in both the upper and lower well compartment and to the lower compartment also a mixture of […] insulin, 0.55 μg/mL transferring and 6.7 ng/mL selenium (ITS, Life Technologies) was added to establish cell polarity and structural differentiation (6-7). The cell monolayers were let to cultivate for 14 days before experiments. […]

For the compound `C=C1/C(=C\C=C2/CCC[C@]3(C)[C@@H]([C@H](C)CCCC(C)(C)O)CC[C@@H]23)C[C@@H](O)C[C@@H]1O` [1.25(OH)2-vitamin D3], the “calcium transport (Experiment 3)” value in assay [1] is listed as “active transport of vitamin D was confirmed”. As to `C[C@H](CCC(=O)NCC(=O)O)[C@H]1CC[C@H]2[C@@H]3[C@H](O)C[C@@H]4C[C@H](O)CC[C@]4(C)[C@H]3C[C@H](O)[C@]12C` [GCA, glycocholic acid], the “Hsp 90β protein expression normalized to GAPDH” value in assay [2] is given as “no effect by itself”.

For vitamin-D, the claudin-2 protein expression entry in assay [3] is listed as “increase claudin-2 protein expression”.
